The test system of data set [1] is adjuvant-induced arthritis. In words: Adjuvant-induced arthritis model (hindpaw swelling). The format is in vivo, male Lewis rats. The note with it: b.i.d. days 13 to 17, Example 1 dosed at 10 mg/kg. How it is done: The activities of the compound of example 1 above and comparison compound C1 (see Biological Example A above) were assessed in an adjuvant-induced arthritis model. Adjuvant arthritis was produced in male Lewis rats (Charles River) by a single intradermal injection of 0.75 mg of M. butyricum in light paraffin oil (Freunds complete adjuvant--FCA) into the base of the tail. The "secondary" lesion occurs after a delay of 10 days, and is characterised by inflammation of the […] volumes were measured plethysmographically by water displacement. The test compound was dosed b.i.d. from days 13 to 17. Paw volume on day 20 was measured and compared to that on day 13. The experiment was terminated on day 23.

The test system of data set [2] is HOSP1.P mammary carcinoma cells. In words: Lung colonisation assay, rat mammary carcinoma model. Type of data set: in vivo. How it is done: The compound of example 1 above was tested for activity in vivo in a rat mammary carcinoma model. A lung colonisation assay was performed in order to determine whether the compound of example 1 above is effective in inhibiting lung colonisation by circulating HOSP1.P mammary carcinoma cells after oral administration.
HOSP1.P cells (1×10^5 cells/animal) were administered to two groups of 12 rats by injection into the jugular vein. The product of example 1 was administered p.o. to one group at 30 mg/kg at -4, +1, +6, +24 and +72 hours relative to tumor cell inoculation at 0 hours. The second (control) group received only vehicle (p.o.) by the same schedule. Animals were killed after 34 days. Lungs were removed and individual tumors counted after 24 hours fixation in Methacarn. […] (p<0.01, Mann-Whitney, two tailed).

For data set [3], the system named is TNF α release from U937 cells. In words: Inhibition of PMA-stimulated TNF α release from U937 cells (ELISA). Type of data set: cell-based. Particulars: Homo sapiens, read-out: IC50 for release of TNF α (average concentration inhibiting release by 50% relative to control). (In an ELISA, binding on a coated surface is turned into a signal by an enzyme label.)
A short description of data set [4]: Aqueous solubility at ambient temperature. The note with it: in water. Type of data set: physicochemical. How it is done:
The solubilities of compounds of the invention in water at ambient temperature were measured, and compared with comparison compounds C1 and C2 (identified in Biological Example A above).

The target in data set [5] is T1, stromelysin (Homo sapiens, UniProt P08254). Description: biochemical.
T1 sequence (P08254 100-477): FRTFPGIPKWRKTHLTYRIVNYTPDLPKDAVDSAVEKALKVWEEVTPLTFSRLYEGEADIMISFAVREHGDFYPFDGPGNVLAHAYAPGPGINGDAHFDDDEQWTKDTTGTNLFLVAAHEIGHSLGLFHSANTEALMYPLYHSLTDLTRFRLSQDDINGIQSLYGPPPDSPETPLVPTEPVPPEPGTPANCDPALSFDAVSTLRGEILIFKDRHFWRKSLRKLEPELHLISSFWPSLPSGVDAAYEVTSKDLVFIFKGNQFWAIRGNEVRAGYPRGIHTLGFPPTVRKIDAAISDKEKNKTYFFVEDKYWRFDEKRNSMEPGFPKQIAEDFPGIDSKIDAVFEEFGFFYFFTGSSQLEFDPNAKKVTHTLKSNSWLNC
Description: (§1) The casein was acetylated ^14 C casein prepared by the method of Cawston et al (ibid).
The nature of data set [6]: Blood concentration over time after oral gavage in rats, determined as collagenase inhibitory activity of extracts. The note with it: for AUC (0-6 h) in number of IC50's × hours: oral gavage, male rats, Example 1: average of two results; for AUC(0-t) at 6 h / Tmax: rat, po.
Description: (§2) The concentration over time of compounds of the invention in the blood of laboratory animals following administration of the test compounds was measured.
(§3) Test compounds were administered by gavage to 6 male rats (300 g) per treatment group. Blood samples were removed by tail venepuncture at 0.5, 1.0, 2.0, 6.0 and 24 hours post administration. 0.4 ml of blood was placed into 4.5 ml tubes containing 0.1 ml acid citrate dextrose (ACD) as anti-coagulant. For extraction, 3 ml methanol was added and the precipitated blood pelletted by centrifugation (30 min at 3000 rpm). A 2 ml aliquot of supernatant was removed and concentrated by lyophilisation. The extract was redissolved in 200 μl DMSO and a 10 μl aliquot assayed for collagenase inhibitory activity.
Data set [7] deals with T2, collagenase (Homo sapiens, UniProt P03956).
T2 sequence (P03956 100-469): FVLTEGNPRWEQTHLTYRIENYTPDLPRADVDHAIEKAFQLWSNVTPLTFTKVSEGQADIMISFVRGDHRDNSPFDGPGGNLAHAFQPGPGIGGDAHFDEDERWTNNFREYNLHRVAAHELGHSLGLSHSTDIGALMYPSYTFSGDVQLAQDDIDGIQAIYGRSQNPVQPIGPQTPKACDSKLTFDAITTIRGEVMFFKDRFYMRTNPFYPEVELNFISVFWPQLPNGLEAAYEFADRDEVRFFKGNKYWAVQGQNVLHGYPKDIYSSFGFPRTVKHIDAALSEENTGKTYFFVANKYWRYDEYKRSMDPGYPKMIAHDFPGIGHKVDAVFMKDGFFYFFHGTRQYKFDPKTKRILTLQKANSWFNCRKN
Description: biochemical.
Description: (§4) The samples were centrifuged to sediment undigested collagen, and an aliquot of the radioactive supernatant removed for assay on a scintillation counter as a measure of hydrolysis.

In data set [8] the target is T2, collagenase. The note with it: read-out: Collagenase IC50; 37°, 16 hours, pH 7.5.
Description: as §4
In data set [9] the target is T1, stromelysin. Particulars: read-out: Stromelysin IC50; 37°, 16 hours, pH 7.5.
Description: as §1
The conditions of data set [10]: rat, in vivo, po, 360 min.
Description: as §2, §3
The nature of a further data set: in vivo. Particulars: rat, po.
The mark [11] stands for this setting: U-937, U937 cells, PMA 50 nM, 18 hours, 37° C.

In brackets after ≈: the same amount, converted by molar mass. Like-named read-outs stand apart in the source and are kept apart here.

Description for in vivo: as §2, §3

One may read the solubility as how much of the substance goes into solution per volume. A higher solubility goes with much dissolved substance. For orientation: AUC(0-t) means the area under the concentration-time curve up to a stated or last time point. Low values mean low exposure, high ones high exposure. The term Tmax denotes the time at which the peak concentration occurs. For the compound `CNC(=O)[C@H](CC1CCCCC1)NC(=O)[C@H](CC(C)C)[C@H](O)C(=O)NO` [Example 1, N^2-[3S-Hydroxy-4-(N-hydroxyamino)-2R-isobutylsuccinyl]-L-cyclohexyl alanine-N^1 methylamide], the “reduction in swelling relative to control (paw volume day 20 vs day 13)” value in data set [1] is recorded as “statistically significant (p<0.01) reduction in swelling relative to control”. Moreover, the “Lung Colony Number, Mean” value in data set [2] (30 mg/kg p.o. at -4, +1, +6, +24, +72 hours, 34 days, control mean 70.50) stood at 38.91. For the same compound, the “Lung Colony Number, Median” value in [2] (30 mg/kg p.o. at -4, +1, +6, +24, +72 hours, 34 days, control median 71.50, p <0.01) is recorded as 38.50. Also, in [2] (30 mg/kg p.o., 34 days), the extrapulmonary tumors entry is “No extrapulmonary tumors were found”. For the same compound, the “inhibition of lung colonisation relative to control group” value in [2] (30 mg/kg p.o., p<0.01, Mann-Whitney, two tailed) is recorded as “significant inhibition of lung colonisation relative to the control group”. Moreover, the IC50 in data set [3] (setting [11]) is less than 50000 nM. Besides, the concentration in solution in [4] (solubility) was 100 µg/mL (≈ 269 µM). This compound had an IC50 against stromelysin [5] of 60 nM. Also, in data set [6], the “AUC (0-6 h) in number of IC50's × hours” value was 46.2 n IC50 's × h, the exposure AUC(0-t) at 6 h was 143 ng·h/mL and the Tmax amounted to 30 min.
As for `CC(C)C[C@@H](C(=O)NC1CCCCCCCCCCNC1=O)[C@H](O)C(=O)NO` (stereo partly drawn) [Example 5, N^3-[3S-Hydroxy-4-(N-hydroxyamino)-2R-isobutylsuccinyl]amino-1-azacyclotridecan-2-one], the results for the IC50 (in [3] (setting [11]); on collagenase [7]) were less than 50000 nM and 20 nM, respectively. The compound also had a solubility in data set [4] of 140 µg/mL (≈ 350 µM).
With `CNC(=O)[C@H](Cc1cccs1)NC(=O)[C@H](CC(C)C)[C@H](O)C(=O)NO` [Example 8, N^2-[3S-Hydroxy-4-(N-hydroxyamino)-2R-isobutylsuccinyl]-L-3-(2-thienyl)alanine-N^1-methylamide], the IC50 on collagenase [7] was 10 nM; at stromelysin [5], 100 nM.
With `CNC(=O)[C@H](Cc1ccc(OCC(=O)O)cc1)NC(=O)[C@H](CC(C)C)[C@H](O)C(=O)NO` [Example 2, N^2-[3S-Hydroxy-4-(N-hydroxyamino)-2R-isobutylsuccinyl]-L-(4-oxymethylcarboxy) phenylalanine-N^1-methylamide], the IC50 in data set [3] (setting [11]) is less than 50000 nM; on collagenase [7], 30 nM; against stromelysin [5], 200 nM. The compound also registered a solubility in data set [4] of 13100 µg/mL (≈ 29900 µM).
The compound `CNC(=O)[C@H](Cn1cccn1)NC(=O)[C@H](CC(C)C)[C@H](O)C(=O)NO` [Example 6, N^2-[3S-Hydroxy-4-(N-hydroxyamino)-2R-isobutylsuccinyl]-L-3-(1-pyrazolyl)alanine-N^1-methylamide] gave a solubility in [4] of 330 µg/mL (≈ 929 µM). For the same compound, the IC50 was 30 nM on collagenase [7] and 3000 nM against stromelysin [5].
With `CNC(=O)[C@@H](NC(=O)[C@H](CC(C)C)[C@H](O)C(=O)NO)c1ccccc1` [Example 3, N^2-[3S-Hydroxy-4-(N-hydroxyamino)-2R-isobutylsuccinyl]-L-phenylglycine-N^1-methylamide], the solubility in data set [4] turned out to be 2340 µg/mL (≈ 6660 µM). The compound further registered an IC50 against collagenase [7] of 100 nM.
`CNC(=O)[C@H](Cc1ccc(-c2ccccc2)cc1)NC(=O)[C@H](CC(C)C)[C@H](O)C(=O)NO` [Example 4, N^2-[3S-Hydroxy-4-(N-hydroxyamino)-2R-isobutylsuccinyl]-L-(4-phenyl)-phenylalanine-N^1-methylamide] came in with a solubility in [4] of 110 µg/mL (≈ 249 µM).
`CNC(=O)[C@H](CCC(=O)NO)NC(=O)[C@H](CC(C)C)[C@H](O)C(=O)NO` [Example 7, N^2-[3S-Hydroxy-4-(N-hydroxyamino)-2R-isobutylsuccinyl]-L-4-(N-hydroxyamino)glutamic acid-N^1-methylamide] displayed a solubility in [4] of 180 µg/mL (≈ 497 µM). The figures for the IC50 against collagenase [7] and against stromelysin [5] were 150 nM and 500 nM, respectively.
Compound `CCOC(=O)CNC(=O)[C@H](CC(C)C)NC(=O)[C@H](CC(C)C)[C@H](CCCCN1C(=O)c2ccccc2C1=O)C(=O)NO` [Example C2] came in with a solubility in data set [4] of less than 100 µg/mL. The IC50 on collagenase [8] worked out at 7 nM. Moreover, the IC50 on stromelysin [9] was determined as 70 nM. In addition, in [6], the “AUC (0-6 h) in number of IC50's × hours” value is 2.12 n IC50 's × h, the AUC(0-t) at 6 h was found to be 5.3 ng·h/mL and the Tmax is 60 min.
In the case of `CCOC(=O)[C@H](C)NC(=O)[C@H](CC(C)C)NC(=O)[C@@H](CC(=O)NO)CC(C)C` [Example C1, reference compound], the “reduction in swelling relative to control (paw volume day 20 vs day 13)” value in data set [1] is “no effect”. The compound further yielded a solubility in [4] of 300 µg/mL (≈ 747 µM). For the same compound, the IC50 against collagenase [7] amounted to 15 nM. This compound showed an IC50 at stromelysin [5] of 300 nM. Besides, in data set [6], the “AUC (0-6 h) in number of IC50's × hours” value is reported as 7.4 n IC50 's × h, the AUC(0-t) at 6 h was 91.7 ng·h/mL and the Tmax turned out to be 30 min.
For the compound `CC(C)C[C@@H](C(=O)N[C@@H](CC1CCCCC1)C(=O)NCCCN1CCCC1=O)[C@H](O)C(=O)NO` [Example 9, N^2-[3S-Hydroxy-4-(N-hydroxyamino)-2R-isobutylsuccinyl]-L-cyclohexyl alanine-N^1-(3-(2-pyrrolidone)propyl)amide], the solubility in [4] amounted to 1800 µg/mL (≈ 3730 µM). For the same compound, the IC50 against collagenase [7] came out at 30 nM.
On to `CNC(=O)[C@@H](NC(=O)[C@H](CC(C)C)[C@H](O)C(=O)NO)C(C)(C)C` [Example 10, N^2-[3S-Hydroxy-4-(N-hydroxyamino)-2R-isobutylsuccinyl]-L-tert-leucine-N^1-methylamide], for which, in data set [3] (U-937, 18 h), the IC50 was less than 50000 nM. Moreover, the solubility in data set [4] stood at 1400 µg/mL (≈ 4220 µM). In addition, the “AUC (0-6 h) in number of IC50's × hours” value in [10] is reported as 190 n IC50 's × h. Also, in the data set “in vivo”, the AUC(0-t) at 6 h came out at 343 ng·h/mL and the time of peak concentration (Tmax) was determined as 30 min.

The record behind these values is patent US5700838A, “Hydroxamic acid derivatives as metalloproteinase inhibitors” (British Biotech Pharmaceuticals Limited, priority 1992, dated 1997).
